How the values were obtained:
[1] = molecular target: T1, σ2 receptor (Rattus norvegicus, UniProt Q5U3Y7); test: σ2 receptor binding assay with [^3H]DTG in the presence of; details: for Ki: Ki-σ2, [^3H]DTG + 1 μM (+)-pentazocine, rat liver membranes, mean ± SEM
T1 sequence (Q5U3Y7 1-176): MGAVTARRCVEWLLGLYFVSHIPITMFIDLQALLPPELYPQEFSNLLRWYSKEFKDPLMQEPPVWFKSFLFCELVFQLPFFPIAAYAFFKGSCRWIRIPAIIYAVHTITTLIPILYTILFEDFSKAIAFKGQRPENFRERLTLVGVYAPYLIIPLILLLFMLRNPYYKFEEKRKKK

[2] = molecular target: T2, human VAChT (Homo sapiens, UniProt Q16572); test: VAChT competitive binding assay with [^3H]vesamicol
T2 sequence (Q16572 1-532): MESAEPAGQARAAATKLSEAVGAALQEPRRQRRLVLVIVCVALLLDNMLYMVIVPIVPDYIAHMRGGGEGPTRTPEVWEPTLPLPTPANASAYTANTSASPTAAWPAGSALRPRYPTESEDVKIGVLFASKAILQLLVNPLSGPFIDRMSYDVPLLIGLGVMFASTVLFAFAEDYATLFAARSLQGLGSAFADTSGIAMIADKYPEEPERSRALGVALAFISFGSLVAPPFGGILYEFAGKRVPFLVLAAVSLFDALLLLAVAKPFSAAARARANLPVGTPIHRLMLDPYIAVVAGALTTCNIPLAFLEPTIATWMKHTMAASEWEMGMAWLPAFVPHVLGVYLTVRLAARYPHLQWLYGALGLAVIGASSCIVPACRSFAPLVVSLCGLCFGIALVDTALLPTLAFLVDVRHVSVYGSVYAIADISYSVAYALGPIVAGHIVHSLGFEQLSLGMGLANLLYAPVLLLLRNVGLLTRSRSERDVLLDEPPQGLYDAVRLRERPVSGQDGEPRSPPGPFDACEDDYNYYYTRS

[3] = post-injection, human brain SPECT; cited from earlier work
[4] = system: VAChT; details: brain of both NHP and human subjects; cited from earlier work

With `O=C(c1ccc(F)cc1)C1CCN(C2Cc3c(cccc3OCCF)CC2O)CC1` (racemic) [Compound 18a, (1-(8-(2-Fluoroethoxy)-3-hydroxy-1,2,3,4-tetrahydronaphthalen-2-yl)piperidin-4-yl)(4-fluorophenyl)methanone] the Ki [1] was > 10 µM.
For `O=C(c1ccc(F)cc1)C1CCN(C2Cc3c(cccc3OCCF)CC2O)CC1` (single isomer, unassigned; (-)) [(-)-18a, (-)-(1-(8-(2-Fluoroethoxy)-3-hydroxy-1,2,3,4-tetrahydronaphthalen-2-yl)piperidin-4-yl)(4-fluorophen-yl)-methanone], the “selectivity for VAChT versus σ receptors” value [2] was > 10,000 fold, the Ki [1] was > 10 µM and the “VAChT/ σ2” value ([1]; selectivity ratio) was >10,000.
In the case of `OC1Cc2cccc([123I])c2CC1N1CCC(c2ccccc2)CC1` (single isomer, unassigned; (-)) [[^123I]IBVM, (-)-5-[^123I]iodo-benzovesamicol], the “time required for quantification of peak uptake in the target regions” value [3] is listed as “at least 6 hr”.
In the case of `O[C@@H]1Cc2cccc(OCC[18F])c2C[C@H]1N1CCC(c2ccccc2)CC1` [[^18F]FEOBV, [^18F]fluoroethoxy-benzovesamicol], the “delayed equilibrium of brain kinetics” value [4] is listed as > 360 min p.i.
